“Also recorded” adds a separate entry of the source.
Assays:
TBI mice = test: Morris water maze test in a mouse model of traumatic brain injury (controlled cortical impact)
[1] = Deaths during surgery or post-TBI drug treatment; assay type: in vivo, CD1 mice; settings: intranasal, day 4 to day 8 after CCI
5-HT1A = biological target: T1, 5-HT1A (Homo sapiens, UniProt P08908); settings: cited from earlier work
T1 sequence (P08908 1-422): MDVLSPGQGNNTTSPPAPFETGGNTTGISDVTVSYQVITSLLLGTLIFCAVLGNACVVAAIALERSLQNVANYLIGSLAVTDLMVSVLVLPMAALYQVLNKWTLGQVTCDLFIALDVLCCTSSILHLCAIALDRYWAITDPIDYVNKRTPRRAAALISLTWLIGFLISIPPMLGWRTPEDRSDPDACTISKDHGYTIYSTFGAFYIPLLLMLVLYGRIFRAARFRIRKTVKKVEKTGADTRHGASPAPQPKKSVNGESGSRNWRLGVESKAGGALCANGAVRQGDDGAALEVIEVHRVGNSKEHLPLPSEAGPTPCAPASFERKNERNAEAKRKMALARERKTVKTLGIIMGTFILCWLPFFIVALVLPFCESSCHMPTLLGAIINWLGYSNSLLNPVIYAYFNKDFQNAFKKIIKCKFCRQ

5-HT2A receptor = 5-HT2A receptor (Homo sapiens, UniProt P28223); settings: cited from earlier work
5-HT2A receptor, sequence (P28223 whole entry): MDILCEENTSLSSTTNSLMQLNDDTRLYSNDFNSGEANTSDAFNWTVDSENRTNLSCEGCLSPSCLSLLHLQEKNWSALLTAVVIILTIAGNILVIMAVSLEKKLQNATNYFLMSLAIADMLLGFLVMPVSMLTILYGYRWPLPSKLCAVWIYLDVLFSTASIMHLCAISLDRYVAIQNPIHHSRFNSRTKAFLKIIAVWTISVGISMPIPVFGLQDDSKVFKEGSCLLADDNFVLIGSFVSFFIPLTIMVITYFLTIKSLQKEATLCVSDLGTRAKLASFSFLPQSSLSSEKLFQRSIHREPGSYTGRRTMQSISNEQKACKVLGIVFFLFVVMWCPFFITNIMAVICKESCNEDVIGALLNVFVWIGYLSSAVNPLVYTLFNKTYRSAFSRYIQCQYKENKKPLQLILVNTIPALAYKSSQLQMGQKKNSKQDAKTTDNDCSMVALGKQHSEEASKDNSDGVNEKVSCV

[2] = Body weight of TBI mice on PID21; assay type: in vivo, CD1 mice; settings: for body weight: measured on PID21
[3] = test system: primary cortical neuronal culture (PCN); test: Glutamate neurotoxicity in primary cortical neuronal culture, MAP2 immunostaining; settings: Glu 100 µM
cluster headache (CH) = settings: low-dose psilocybin; cited from earlier work
[4] = high dose Psilocybin, day 4 to day 8, PID 10, 14 and 21

Compound	No. of crossing (average number of platform crossings) (TBI mice; Psi-H (high dose), Day 3 (PID3, before drug treatment))	No. of crossing (average number of platform crossings) (TBI mice; Psi-H (high dose, i.n. day 4 to day 8 after CCI), Day 10)	No. of crossing (average number of platform crossings) (TBI mice; Psi-H (high dose, i.n. day 4 to day 8 after CCI), Day 14)	No. of crossing (average number of platform crossings) (TBI mice; Psi-H (high dose, i.n. day 4 to day 8 after CCI), Day 21)	No. of crossing (average number of platform crossings) (TBI mice; Psi-L (low dose), Day 3 (PID3, before drug treatment))	No. of crossing (average number of platform crossings) (TBI mice; Psi-L (low dose, i.n. day 4 to day 8 after CCI), Day 10)	No. of crossing (average number of platform crossings) (TBI mice; Psi-L (low dose, i.n. day 4 to day 8 after CCI), Day 14)	No. of crossing (average number of platform crossings) (TBI mice; Psi-L (low dose, i.n. day 4 to day 8 after CCI), Day 21)	Average number of platform crossings in TBI mice (in words) (TBI mice; [4])	Time in the target area in TBI mice (in words) (TBI mice; [4])	Cognitive function in TBI mice (Morris water maze) (TBI mice; i.n. starting 4 days after TBI for 5 days)	Animal deaths during post-TBI drug treatment [1]	Agonist activity at 5-HT1A (5-HT1A)	Agonist activity at 5-HT2A receptor (5-HT2A receptor)	Body weight (in words) ([2]; PID21)	body weight ([2]; Psi-H (high dose))	body weight ([2]; Psi-L (low dose))	Antagonism of glutamate-mediated reduction of MAP2 immunoreactivity (neuronal loss) ([3]; PSI 100 nM or 1 μM, n=5-6 per group)	Effect on cluster headache (cluster headache (CH))	Effect on MAP2 immunoreactivity (MAP2-ir) vs. vehicle ([3]; 48 hrs)
CN(C)CCc1c[nH]c2cccc(OP(=O)(O)O)c12 [Psilocybin, 4-phosphoryloxy-N,N-dimethyltryptamine]	4.43 ± 0.69	6.00 ± 0.85	6.00 ± 0.44	6.00 ± 0.66	3.57 ± 0.90	4.14 ± 0.51	4.43 ± 0.61	3.29 ± 0.57	significantly increased	significantly increased	significantly improved	No animal died	moderate agonist	strong agonist	did not significantly alter	34.7 ± 0.87 g	35.71 ± 0.68 g	not significantly altered; also recorded: non-significant trend; also recorded: not significantly antagonized; also recorded: did not significantly alter	can prevent	–
N[C@@H](CCC(=O)O)C(=O)O [Glu, glutamate]	–	–	–	–	–	–	–	–	–	–	–	–	–	–	–	–	–	–	–	significantly reduced

— US20240277736A1, “USE OF PSILOCYBIN IN THE TREATMENT OF NEUROLOGICAL BRAIN INJURY AND MIGRAINES” (priority 2020, published 2024)
